Earlier results as cited in patent publication US20070014855A1, “STABLE DESLORATADINE COMPOSITIONS” (priority 2005, published 2007).

Clc1ccc2c(c1)CCc1cccnc1C2=C1CCNCC1 [Desloratadine, 8-chloro-6,11-dihydro-11-(4-piperidylidene)-5H-benzo[5,6]-cyclohepta[1,2-b]pyridine]
solubility in ethanol (ethanol): very soluble
solubility in propylene glycol (propylene glycol): very soluble
solubility in water (water): slightly soluble
